Measured values: patent US20080262081A1, “Novel Use of Nutraceutical Compositions Comprising Resveratrol” (priority 2005, published 2008)

Test system: phosphorylated p70S6K (Thr389)
Assay: Phosphorylated p70S6K (Thr389) level in insulin-stimulated C3H10T1/2 cells (Western blot)
Type: cell-based, Mouse
Design: key to Phosphorylated p70S6K (Thr389) level, % vs. Vehicle: *: under detectable level
Conditions: for Phosphorylated p70S6K (Thr389) level, % vs. Vehicle: vehicle = 100%
Protocol: Mouse embryonic mesenchymal stem cells, C3H10T1/2 cells, (ATCC, USA, #CCL-226), were cultured in DMEM (low glucose […], Gibco), supplemented with 10% FBS and 2 mM L-Glutamine (Gibco). 2×10^5 cells /well were seeded in 6-well plate and grown to 80% confluency. Cells were treated with either rapamycin (Tocris, UK, #1292) at 100 nM, EGCG (TEAVIGO®, DSM Nutritional Product ltd. Switzerland) at 10 microM , resveratrol (DSM Nutritional Products Ltd. Switzerland) at 0.1, 1, 10 μM or combination of EGCG (10 microM) and resveratrol (0.1,1, 10 μM) for 30 min, then stimulated with insulin (Sigma, Switzerland) at 100 nM for 30 min. Cells were washed twice with PBS and harvested in 0.4 ml NETT buffer (0.1 M NaCl, 10 mM Tris-HCL (pH 7.6), 1 mM EDTA, 1% Triton X-100, pH 7.6 ). Cell lysates were sonicated and centrifuged at 14,000 rpm for 2 min. Protein concentration was determined using BCA assay (PIERCE, USA #23223). 10 microgram whole cell extracts were loaded on SDS-gel (10-20% Tricine gradient gel) and blotted on nitrocellulose membrane (0.2 μm pore, Invitrogen, #LC2000 ). Blot was incubated first with monoclonal antibody, phosphor-p70 S6 Kinase (Thr389)(1A5) mouse mAb (Cell signaling technology, #9206) at 1:2000 dilution, then with secondary antibody, goat anti-mouse IgG HRP (Santa Cruz, USA, #SC2055) at 1:10000. Protein load was control by measuring β-actin using anti mouse β-actin (Sigma, Switzerland, #A-5441). The signals were detected using ECL plus Western Blotting Detection System (Amersham Biosciences; RPN2132). Membrane was exposed to X-ray film for 30′ (Hyperfilm ECL; High performance chemiluminescence film, Amersham Biosciences; RPN1674 ) and films were scanned with ChemiGenius 2 machine (Syngene, UK). The signals were quantified by using GeneTools software (Syngene, UK). Signal of phosphorylated p70S6K was normalized to the protein load control β-actin, and vehicle was set up as 100%.

[1] = 10 μM single agent, insulin 100 nM

Molecule | Phosphorylated p70S6K (Thr389) level, % vs. Vehicle (100 nM, 30 min pretreatment then insulin 100 nM 30 min, normalized to β-actin) | Phosphorylated p70S6K (Thr389) level, % vs. Vehicle (0.1 μM single agent, insulin 100 nM) | Phosphorylated p70S6K (Thr389) level, % vs. Vehicle (1 μM single agent, insulin 100 nM) | Phosphorylated p70S6K (Thr389) level, % vs. Vehicle [1] | effect on phosphorylated p70S6K (Thr389) amount (in words) (0.1, 1 and 10 microM) | effect on phosphorylated p70S6K (Thr389) amount (in words) (10 microM)
CO[C@H]1C[C@@H]2CC[C@@H](C)[C@@](O)(O2)C(=O)C(=O)N2CCCC[C@H]2C(=O)O[C@H]([C@H](C)C[C@@H]2CC[C@@H](O)[C@H](OC)C2)CC(=O)[C@H](C)/C=C(\C)[C@@H](O)[C@@H](OC)C(=O)[C@H](C)C[C@H](C)/C=C/C=C/C=C/1C [Rapa, rapamycin, reference compound] | * | – | – | – | – | –
Oc1ccc(C=Cc2cc(O)cc(O)c2)cc1 [Resveratrol, resveratrol] | – | 95.23% | 106.9157% | 132.715% | no influence | –
(−)-epigallocatechin gallate [EGCG] | – | – | – | 117.20% | – | little effect
